According to patent US11858941B2, “Heterocyclic and heteroaryl compounds for treating Huntington's disease” (PTC THERAPEUTICS, INC., priority 2018, dated 2024):

Tested on: Endogenous Huntingtin Protein
Experiment: Endogenous Huntingtin Protein Assay (Meso Scale Discovery ELISA-based electrochemiluminescence)
Assay type: cell-based
Details: MSD plates coated with MW1 (expanded polyglutamine) or MAB2166 capture antibody; lysates
Procedure, shortened: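 MSD electrochemiluminescence sandwich ELISA: MW1 (expanded polyQ) or MAB2166 capture antibody at 1 μg/mL, samples incubated overnight at 4° C. Detection with rabbit monoclonal #5656S then SULFO-TAG anti-rabbit antibody, each 0.25 μg/mL for 1 h at room temperature.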

SMILES	IC50
CC1(C)CC(n2ccc3cc(-c4ccc(-n5nccn5)cc4O)nnc32)CC(C)(C)N1 [Cpd 176, 2-[7-(2,2,6,6-tetramethylpiperidin-4-yl)-7H-pyrrolo[2,3-c]pyridazin-3-yl]-5-(2H-1,2,3-triazol-2-yl)phenol]	≤ 100 nM
CC1(C)CC(n2cnc3nc(-c4cc(F)c(-c5cn[nH]c5)cc4F)cnc32)CC(C)(C)N1 [Cpd 2, 5-[2,5-difluoro-4-(1H-pyrazol-4-yl)phenyl]-1-(2,2,6,6-tetramethylpiperidin-4-yl)-1H-imidazo[4,5-b]pyrazine]	100 to 500 nM
Cn1cc(-c2ccc(-c3cc4nnn(C5CC(C)(C)NC(C)(C)C5)c4nn3)c(O)c2)nn1 [Cpd 138, 5-(1-methyl-1H-1,2,3-triazol-4-yl)-2-[3-(2,2,6,6-tetramethylpiperidin-4-yl)-3H-[1,2,3]triazolo[4,5-c]pyridazin-6-yl]phenol]	100 to 500 nM
Cn1cc(-c2ccc(-c3cc4nnn(C5CC(C)(C)NC(C)(C)C5)c4nn3)c(O)c2)cn1 [Cpd 39, 5-(1-methyl-1H-pyrazol-4-yl)-2-[3-(2,2,6,6-tetramethylpiperidin-4-yl)-3H-[1,2,3]triazolo[4,5-c]pyridazin-6-yl]phenol]	≤ 100 nM
CC1(C)CC(n2nnc3cc(-c4cc(F)c(-c5cn[nH]c5)cc4O)nnc32)CC(C)(C)N1 [Cpd 35, 4-fluoro-5-(1H-pyrazol-4-yl)-2-[3-(2,2,6,6-tetramethylpiperidin-4-yl)-3H-[1,2,3]triazolo[4,5-c]pyridazin-6-yl]phenol]	≤ 100 nM
COc1ncnc(-c2ccc(-c3cc4nnn(C5CC(C)(C)NC(C)(C)C5)c4nn3)c(O)c2)n1 [Cpd 159, 5-(4-methoxy-1,3,5-triazin-2-yl)-2-(3-(2,2,6,6-tetramethylpiperidin-4-yl)-3H-[1,2,3]triazolo[4,5-c]pyridazin-6-yl)phenol]	≤ 100 nM
CC1(C)CC(n2ncc3cc(-c4ccc(-c5cncnc5)cc4O)nnc32)CC(C)(C)N1 [Cpd 167, 5-(pyrimidin-5-yl)-2-[1-(2,2,6,6-tetramethylpiperidin-4-yl)-1H-pyrazolo[3,4-c]pyridazin-5-yl]phenol]	1000 to 3000 nM
CC(C)(C)NC1CC(n2nnc3cc(-c4ccc(-c5cn[nH]c5)cc4O)nnc32)C1 (stereo not shown) [Cpd 170, 2-{3-[3-(tert-butylamino)cyclobutyl]-3H-[1,2,3]triazolo[4,5-c]pyridazin-6-yl}-5-(1H-pyrazol-4-yl)phenol]	1000 to 3000 nM
CC1(C)CC(n2nnc3cc(-c4ccc(-c5ccsc5)cc4O)nnc32)CC(C)(C)N1 [Cpd 89, 2-[3-(2,2,6,6-tetramethylpiperidin-4-yl)-3H-[1,2,3]triazolo[4,5-c]pyridazin-6-yl]-5-(thiophen-3-yl)phenol]	100 to 500 nM
CC1(C)CC(n2nnc3cc(-c4cc5cccnc5cc4O)nnc32)CC(C)(C)N1 [Cpd 81, 6-[3-(2,2,6,6-tetramethylpiperidin-4-yl)-3H-[1,2,3]triazolo[4,5-c]pyridazin-6-yl]quinolin-7-ol]	1000 to 3000 nM
Cn1ccc(-c2ccc(-c3cc4nnn(C5CC(C)(C)NC(C)(C)C5)c4nn3)c(O)c2)n1 [Cpd 51, 5-(1-methyl-1H-pyrazol-3-yl)-2-[3-(2,2,6,6-tetramethylpiperidin-4-yl)-3H-[1,2,3]triazolo[4,5-c]pyridazin-6-yl]phenol]	100 to 500 nM
Cc1cnn(-c2ccc(-c3cc4nnn(C5CC(C)(C)NC(C)(C)C5)c4nn3)c(O)c2)c1 [Cpd 156, 5-(4-methyl-1H-pyrazol-1-yl)-2-(3-(2,2,6,6-tetramethylpiperidin-4-yl)-3H-[1,2,3]triazolo[4,5-c]pyridazin-6-yl)phenol]	100 to 500 nM
CC1(C)CC(n2nnc3cc(-c4ccc(-c5cc[nH]c5)cc4O)nnc32)CC(C)(C)N1 [Cpd 80, 5-(1H-pyrrol-3-yl)-2-[3-(2,2,6,6-tetramethylpiperidin-4-yl)-3H-[1,2,3]triazolo[4,5-c]pyridazin-6-yl]phenol]	100 to 500 nM
CC1(C)C=C(c2coc3cc(-c4ccc(-c5cn[nH]c5)cc4O)nnc23)CC(C)(C)N1 [Cpd 105, 5-(1H-pyrazol-4-yl)-2-[7-(2,2,6,6-tetramethyl-1,2,3,6-tetrahydropyridin-4-yl)furo[3,2-c]pyridazin-3-yl]phenol]	≤ 100 nM
CC1(C)CC(n2nnc3cc(-c4ccc(-c5cc(F)c6nn[nH]c6c5)cc4O)nnc32)CC(C)(C)N1 [Cpd 135, 5-(4-fluoro-1H-benzotriazol-6-yl)-2-[3-(2,2,6,6-tetramethylpiperidin-4-yl)-3H-[1,2,3]triazolo[4,5-c]pyridazin-6-yl]phenol]	≤ 100 nM
Cn1ccc(-c2ccc(-c3cc4nnn(C5CC(C)(C)NC(C)(C)C5)c4nn3)c(O)c2)cc1=O [Cpd 37, 4-{3-hydroxy-4-[3-(2,2,6,6-tetramethylpiperidin-4-yl)-3H-[1,2,3]triazolo[4,5-c]pyridazin-6-yl]phenyl}-1-methylpyridin-2(1H)-one]	≤ 100 nM
CCOc1cc(-c2ccc(-c3cc4nnn(C5CC(C)(C)NC(C)(C)C5)c4nn3)c(O)c2)ccn1 [Cpd 123, 5-(2-ethoxypyridin-4-yl)-2-[3-(2,2,6,6-tetramethylpiperidin-4-yl)-3H-[1,2,3]triazolo[4,5-c]pyridazin-6-yl]phenol]	3000 to 9000 nM
COc1n[nH]cc1-c1ccc(-c2cc3nnn(C4CC(C)(C)NC(C)(C)C4)c3nn2)c(O)c1 [Cpd 131, 5-(3-methoxy-1H-pyrazol-4-yl)-2-[3-(2,2,6,6-tetramethylpiperidin-4-yl)-3H-[1,2,3]triazolo[4,5-c]pyridazin-6-yl]phenol]	≤ 100 nM
CC1(C)CC(n2nnc3cc(-c4ccc(-c5ncc[nH]5)cc4O)nnc32)CC(C)(C)N1 [Cpd 91, 5-(1H-imidazol-2-yl)-2-[3-(2,2,6,6-tetramethylpiperidin-4-yl)-3H-[1,2,3]triazolo[4,5-c]pyridazin-6-yl]phenol]	1000 to 3000 nM
CC1(C)CC(n2nnc3cc(-c4ccc(-c5cnoc5)cc4O)nnc32)CC(C)(C)N1 [Cpd 120, 5-(1,2-oxazol-4-yl)-2-[3-(2,2,6,6-tetramethylpiperidin-4-yl)-3H-[1,2,3]triazolo[4,5-c]pyridazin-6-yl]phenol]	100 to 500 nM
COc1nccc(-c2ccc(-c3cc4nnn(C5CC(C)(C)NC(C)(C)C5)c4nn3)c(O)c2)n1 [Cpd 119, 5-(2-methoxypyrimidin-4-yl)-2-[3-(2,2,6,6-tetramethylpiperidin-4-yl)-3H-[1,2,3]triazolo[4,5-c]pyridazin-6-yl]phenol]	100 to 500 nM
CCOc1cc(-c2ccc(-c3cc4nnn(C5CC(C)(C)NC(C)(C)C5)c4nn3)c(O)c2)ncn1 [Cpd 124, 5-(6-ethoxypyrimidin-4-yl)-2-[3-(2,2,6,6-tetramethylpiperidin-4-yl)-3H-[1,2,3]triazolo[4,5-c]pyridazin-6-yl]phenol]	≤ 100 nM
Cc1nc2cc(-c3ccc(-c4cn[nH]c4)cc3O)nnc2n1C1CC(C)(C)NC(C)(C)C1 [Cpd 5, 2-[6-methyl-7-(2,2,6,6-tetramethylpiperidin-4-yl)-7H-imidazo[4,5-c]pyridazin-3-yl]-5-(1H-pyrazol-4-yl)phenol]	≤ 100 nM
Oc1cc(-c2cn[nH]c2)ccc1-c1cnc2c(cnn2C2CCNCC2)n1 [Cpd 19, 2-[1-(piperidin-4-yl)-1H-pyrazolo[3,4-b]pyrazin-5-yl]-5-(1H-pyrazol-4-yl)phenol]	1000 to 3000 nM
Cc1nsc(-c2ccc(-c3cc4nnn(C5CC(C)(C)NC(C)(C)C5)c4nn3)c(O)c2)n1 [Cpd 153, 5-(3-methyl-1,2,4-thiadiazol-5-yl)-2-[3-(2,2,6,6-tetramethylpiperidin-4-yl)-3H-[1,2,3]triazolo[4,5-c]pyridazin-6-yl]phenol]	≤ 100 nM
CC1(C)CC(n2nnc3cc(-c4ccc(-c5ccc6[nH]nnc6n5)cc4O)nnc32)CC(C)(C)N1 [Cpd 147, 2-[3-(2,2,6,6-tetramethylpiperidin-4-yl)-3H-[1,2,3]triazolo[4,5-c]pyridazin-6-yl]-5-(1H-[1,2,3]triazolo[4,5-b]pyridin-5-yl)phenol]	1000 to 3000 nM
CC1(C)CC(n2nnc3cc(-c4ccc(-c5nccs5)cc4O)nnc32)CC(C)(C)N1 [Cpd 96, 2-[3-(2,2,6,6-tetramethylpiperidin-4-yl)-3H-[1,2,3]triazolo[4,5-c]pyridazin-6-yl]-5-(1,3-thiazol-2-yl)phenol]	≤ 100 nM
CC1(C)CC(n2nnc3cc(-c4ccc(-c5ncc(O)cn5)cc4O)nnc32)CC(C)(C)N1 [Cpd 68, 2-{3-hydroxy-4-[3-(2,2,6,6-tetramethylpiperidin-4-yl)-3H-[1,2,3]triazolo[4,5-c]pyridazin-6-yl]phenyl}pyrimidin-5-ol]	≤ 100 nM
